{"source": "patent US9498505B2", "about": "“Embelia concinna extract comprising flavonoids in cosmetic and pharmaceutical compositions” (BAYER CONSUMER CARE AG, priority 2012, dated 2016)", "key": {"[1]": {"tested_on": "human neutrophils", "test": "LTB4 release by neutrophils stimulated with opsonised zymosan (ELISA)", "format": "cell-based", "method": "(§1) The purpose of this study is the evaluation of the dry Embelia extract on the production of LTB4 (leucotriens B4) and PGE-2 (prostaglandin E-2) in human neutrophils. Venous blood from healthy donors was collected into tubes containing anticoagulant and sedimented with Dextran (Dextran T500). The supernatant was layered on Ficoll-Hypaque (density 1,077) and centrifuged at 400 g for 20 min. The cell pellet was washed in Tyrode (in mM: NaCl 137; KCl 2.6; glucose 5.6; HEPES 4.2; pH 7.4). Contaminating red blood corpuscules were lyzed. The cells were resuspended at 2.106 cells/ml in the Tyrode buffer supplemented with CaCl2 and MgCl2 (1.3 and 1 mM, respectively). Cells (2.106 cells/ml) were incubated at 37° C. in the presence or absence of the products to be tested during 15 min and then stimulated with opsonised zymosan (1 mg/ml) during 10 min. LTB4 assay was performed using a kit ELISA (Thermo Fisher ref. EHL LTB4). The quantity of LTB4 was expressed in pg/ml. PGE2 assay was performed using a kit ELISA (Assay designs ref 900-001 and SPIBIO ref 514010). The quantity of PGE2 was expressed in pg/ml. Data represent the means of values measured in one supernatant (non stimulated cells) or three supernatants (stimulated cells). Each measurement was assessed in duplicate. The means of the data were compared to the control condition (Student's t test-comparison of means—statistical significance at 95% if p<0.05* and at 99% if p<0.01**). The percentage of inhibition was calculated as follows: % inhibition=100×[(LTB4 treated with ECC (stimulated)/LTB4 control (stimulated)×100]"}, "[2]": {"tested_on": "sensory neurons from dorsal root ganglia", "test": "CGRP release induced by capsaicin in sensory neurons (ELISA)", "format": "cell-based, newborn Wistar rat", "method": "FIG. 4: Evaluation by Elisa assay of CGRP release. Protocol: in vitro test on sensory neurons, Sensory neurons from dorsal root ganglia of newborn Wistar rat, pre-treatment with Embelia extract for 30 min, stimulation with capsaicin (0.3 μM) for 30 min, tested vs capsazepine (30 μM) as standard reference.\n(§2) Test was performed with liquid Embelia extract according to example 1 to measure its activity on release of substance P or CGRP induced by capsaicin in sensory neurons models. Cells were isolated from dorsal root ganglia of newborn Wistar rat. Cells were cultured at 37° C., 5% CO2 and culture medium concerned DMEM-Ham F12 supplemented with N2 complement 1%, antibiotics, L-glutamine 2 mM, nerve growth factor beta 20 ng/ml, neutrophin 5 ng/ml.\n(§3) Sensory neurons were then seeded in culture medium containing or not containing (control) the test compound or the reference (capsazepine at 30 μM) and cells were pre-incubated for 30 minutes. Cells were then stimulated or not stimulated (non-stimulation control) with capsaicin (a pungent and irritating agent from hot chili pepper) at 0.3 μM and incubated for 30 minutes. All experimental conditions were performed in n=3. At the end of incubation, the quantity of neuromediators (Substance P or CGRP) in culture supernatants was measured using respective ELISA kit according to the supplier's instructions. The inter-group comparisons were performed by Student's t-test for data management.\n(§4) Results are expressed in % according to the following formulas: […]"}, "[3]": {"tested_on": "sensory neurons from dorsal root ganglia", "test": "Substance P release induced by capsaicin in sensory neurons (ELISA)", "format": "cell-based, newborn Wistar rat", "method": "FIG. 3: Evaluation by Elisa assay of substance P release. Protocol: in vitro test on sensory neurons, sensory neurons from dorsal root ganglia of newborn Wistar rat, pre-treatment with Embelia extract for 30 min, stimulation with capsaicin (0.3 μM) for 30 min, tested vs capsazepine (30 μM) as standard reference.\nas §2, §3, §4"}, "[4]": {"tested_on": "sensory neurons from dorsal root ganglia", "test": "Viability (MTT) of sensory neurons", "format": "cell-based, newborn Wistar rat", "settings": "Capsazepine 30 μM", "method": "A preliminary cytotoxicity test to select doses for further assay was performed with viability test (MMT assay)."}, "[5]": {"tested_on": "mast cells (Peritoneal cells from Wistar rat including ~50% mast cells)", "test": "Histamine release from mast cells after CP48/80-induced degranulation (ELISA)", "format": "cell-based", "method": "FIG. 2: Evaluation by Elisa assay of histamine release after induced mast cells degranulation. Protocol: in vitro test on mast murine cells, peritoneal cells from Wistar rat including ˜50% mast cells, re-treatment with Embelia extract for 15 min, stimulation with CP48/80 (10 μg/ml) for 20 min, tested vs cromoglycate (10 nM) as standard reference. Test was performed with liquid Embelia extract according to example 1 comprising 7.3% dry matter to measure its activity on degranulation of mast cells (Peritoneal cells from Wistar rat including ˜50% mast cells) stimulated with CP48/80. Effects on degranulation were evaluated by measuring histamine release after stimulation. Cells were cultured at 37° C., 5% CO2 and culture medium concerned EBSS supplemented with CaCl2 1.8 mM, MgCl2 0.8 mM and Bovine serum albumine (BSA) 0.1%. Mast cells were seeded in culture medium containing or not containing (control) the test compound or the reference (cromoglycate at 10 mM) and cells were pre-incubated for 20 minutes. Cells were then stimulated or not stimulated (non-stimulation control) with histamine release inducer CP48/80 at 10 μg/ml and incubated for 20 minutes. All experimental conditions were performed in n=3. At the end of incubation, the quantity of histamine in culture supernatants was measured using an ELISA kit according to the supplier's instructions. The inter-group comparisons were performed by Student's t-test for data management. Results are expressed in % according to the following formulas: [formula]"}, "[6]": {"tested_on": "human basophils (KU812 cell line)", "test": "Histamine release from KU812 basophils after CP48/80-induced degranulation (ELISA)", "format": "cell-based", "method": "FIG. 1: Evaluation by Elisa assay of histamine release after induced basophils degranulation. Protocol: in vitro test on human basophils (KU812 cell line), pre-treatment with Embelia extract for 20 min, stimulation with CP48/80 (10 μg/ml) for 20 min, tested vs cromoglycate (10 nM) as standard reference. Test was performed on liquid Embelia extract according to example 1 to measure its activity on degranulation of human basophils (KU812 cell line) stimulated with CP48/80. Effects on degranulation were evaluated by measuring histamine release after stimulation. Cells were cultured at 37° C., 5% CO2 and culture medium concerned EBSS supplemented with CaCl2 1.8 mM, MgCl2 0.8 mM and Bovine serum albumine (BSA) 0.1%. KU812 cells were then seeded in culture medium containing or not (control) the test compound or the reference (cromoglycate at 10 mM) and cells were pre-incubated for 20 minutes. Cells were then stimulated or not (non-stimulated control) with histamine release inducer CP48/80 at 10 μg/ml and incubated for 20 minutes. All experimental conditions were performed in n=3. At the end of incubation, the quantity of histamine in culture supernatants was measured using an ELISA kit according to the supplier's instructions. The inter-group comparisons were performed by Student's t-test for data management. Results are expressed in % according to the following formulas: [formula] [formula]"}, "[7]": {"tested_on": "human neutrophils", "test": "PGE2 release by neutrophils stimulated with opsonised zymosan (ELISA)", "format": "cell-based", "settings": "for PGE2: Indomethacin 1 μM", "method": "as §1, with “p<0.01**).” for “p<0.01**). The percentage of inhibition was calculated as follows: % inhibition=100×[(LTB4 treated with ECC (stimulated)/LTB4 control (stimulated)×100]”"}, "[8]": {"settings": "Capsazepine 30 μM, capsaicin (0.3 μM)"}, "[9]": {"settings": "Rattus norvegicus, Neuron, Capsazepine 30 μM, capsaicin (0.3 μM)"}, "[10]": {"settings": "individual values, Capsazepine 30 μM, capsaicin (0.3 μM)"}, "[11]": {"settings": "Cromoglycate 10 mM, CP48/80 at 10 μg/ml"}}, "note": "Where “and” joins values, the source holds several entries; their conditions need not be identical. Identical values can stand only once."}
{"smiles": "C[C@H]1[C@H](C)CC[C@]2(C)CC[C@]3(C)C(=CC[C@@H]4[C@@]5(C)CC[C@@H](O)[C@](C)(C(=O)O)[C@@H]5CC[C@]43C)[C@H]12", "note": "[Boswellic acid]", "values": [{"measurement": "inhibition at 10 µg/mL", "setting": "[1]; Homo sapiens, Neutrophil, Boswellic acid 10 μg/ml, positive control", "value": 45, "unit": "%"}]}
{"smiles": "Oc1cc2c(cc1O)CN(C(=S)NCCc1ccc(Cl)cc1)CCC2", "note": "[Capsazepine]", "values": [{"measurement": "Mean CGRP", "setting": "[2]; [8]", "value": 642, "unit": "pg/mL"}, {"measurement": "Stimulated Control (%)", "setting": "[2]; [8]", "value": 39, "unit": "%"}, {"measurement": "inhibition at 30 µM", "setting": "[2]; [9]", "value": 64, "unit": "%"}, {"measurement": "effect on capsaicin-stimulated CGRP release", "setting": "[2]; capsazepine 30 μM", "value": "significantly inhibited this effect"}, {"measurement": "CGRP", "setting": "[2]; [10]", "value": "671 pg/mL and 698 pg/mL and 557 pg/mL"}, {"measurement": "% Stimulated Control (%)", "setting": "[3]; [8]", "value": 9, "unit": "%"}, {"measurement": "Mean Substance P", "setting": "[3]; [8]", "value": 23, "unit": "pg/mL"}, {"measurement": "inhibition at 30 µM", "setting": "[3]; [9]", "value": 99, "unit": "%"}, {"measurement": "effect on capsaicin-stimulated substance P release", "setting": "[3]; capsazepine 30 μM", "value": "significantly inhibited this effect"}, {"measurement": "Substance P", "setting": "[3]; [10]", "value": 23, "unit": "pg/mL"}, {"measurement": "Viability (MTT) % Stimulated Control", "setting": "[4]; Table 6 (substance P experiment)", "value": 96, "unit": "%"}, {"measurement": "Viability (MTT) Stimulated Control (%)", "setting": "[4]; Table 7 (CGRP experiment)", "value": 114, "unit": "%"}]}
{"smiles": "O=C(O)c1cc(=O)c2c(OCC(O)COc3cccc4oc(C(=O)O)cc(=O)c34)cccc2o1", "note": "[Cromoglycate]", "values": [{"measurement": "Inhibition (%)", "setting": "[5]; [11]", "value": 81, "unit": "%"}, {"measurement": "Mean Histamine", "setting": "[5]; [11]", "value": 11.7, "unit": "µM"}, {"measurement": "Stimulated Control (%)", "setting": "[5]; [11]", "value": 20, "unit": "%"}, {"measurement": "effect on CP48/80-stimulated histamine release", "setting": "[5]; cromoglycate 10 mM", "value": "significantly inhibited this effect"}, {"measurement": "Inhibition (%)", "setting": "[6]; [11]", "value": 42, "unit": "%"}, {"measurement": "Mean Histamine", "setting": "[6]; [11]", "value": 29.5, "unit": "nM"}, {"measurement": "Stimulated Control (%)", "setting": "[6]; [11]", "value": 71, "unit": "%"}, {"measurement": "effect on CP48/80-stimulated histamine release", "setting": "[6]; cromoglycate 10 mM", "value": "significantly inhibited this effect"}, {"measurement": "Histamine", "setting": "[6]; individual values, Cromoglycate 10 mM, CP48/80 at 10 μg/ml", "value": "32.3 nM and 27.0 nM and 29.0 nM"}]}
{"smiles": "COc1ccc2c(c1)c(CC(=O)O)c(C)n2C(=O)c1ccc(Cl)cc1", "note": "[Indomethacin]", "values": [{"measurement": "inhibition of PGE2 release", "setting": "[7]; Indometacin 1 μM, positive control", "value": 51, "unit": "%"}, {"measurement": "PGE2", "setting": "[7]; (NS) not stimulated", "value": 60, "unit": "pg/mL"}, {"measurement": "PGE2", "setting": "[7]; (S) stimulated with opsonised zymosan", "value": 77.0, "unit": "pg/mL"}]}
{"smiles": "Cc1ncc([N+](=O)[O-])n1CCO", "note": "[Metronidazole]", "values": [{"measurement": "inhibition at 5 µg/mL", "setting": "[1]; Homo sapiens, Neutrophil, metronidazole 5 μg/ml, positive control", "value": 100, "unit": "%"}, {"measurement": "LTB4", "setting": "[1]; Metronidazole (10 μg/ml), (S) stimulated with opsonised zymosan", "value": 530, "unit": "pg/mL"}]}
